Data published in ChEMBL document CHEMBL5465560, “Selectivity Literature for EUbOPEN Chemogenomic Library” (2024).
Blank lines part the entries; values can stand above or below the compound they belong to.

Columns and labels:
[1] = target: T1, Serine/threonine-protein kinase RIO3 (Homo sapiens) (UniProt O14730); assay: Selectivity interaction (KinomeScan (DiscoverX)) EUB0001049a RIOK3; conditions: at 1 µM
T1 sequence (whole entry): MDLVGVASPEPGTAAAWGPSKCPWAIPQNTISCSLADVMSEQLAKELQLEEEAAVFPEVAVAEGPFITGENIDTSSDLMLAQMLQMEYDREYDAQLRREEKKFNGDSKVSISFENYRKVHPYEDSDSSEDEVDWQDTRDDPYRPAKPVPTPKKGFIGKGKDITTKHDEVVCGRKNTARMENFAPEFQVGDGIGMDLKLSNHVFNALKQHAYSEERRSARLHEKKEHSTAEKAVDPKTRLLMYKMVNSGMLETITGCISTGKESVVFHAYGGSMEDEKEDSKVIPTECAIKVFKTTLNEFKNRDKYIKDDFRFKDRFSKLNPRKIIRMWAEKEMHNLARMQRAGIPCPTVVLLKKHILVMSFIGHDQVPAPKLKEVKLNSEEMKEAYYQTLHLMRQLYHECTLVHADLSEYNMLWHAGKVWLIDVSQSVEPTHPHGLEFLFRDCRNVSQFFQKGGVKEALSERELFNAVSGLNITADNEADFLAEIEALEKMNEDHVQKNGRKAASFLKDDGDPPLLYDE

[2] = target: CDK9/cyclin T1 (Homo sapiens) (UniProt O60563+P50750); assay: Selectivity interaction (Kinase panel (Invitrogen)) EUB0000639a CDK9; format: protein-complex assay; conditions: at 200 nM
[3] = target: Serine/threonine-protein kinase PAK 6 (Homo sapiens) (UniProt Q9NQU5); assay: Selectivity interaction (KinomeScan (DiscoverX)) EUB0000092b PAK6; conditions: at 10 µM
Serine/threonine-protein kinase PAK 6 (Homo sapiens), sequence (Q9NQU5 whole entry, looked up): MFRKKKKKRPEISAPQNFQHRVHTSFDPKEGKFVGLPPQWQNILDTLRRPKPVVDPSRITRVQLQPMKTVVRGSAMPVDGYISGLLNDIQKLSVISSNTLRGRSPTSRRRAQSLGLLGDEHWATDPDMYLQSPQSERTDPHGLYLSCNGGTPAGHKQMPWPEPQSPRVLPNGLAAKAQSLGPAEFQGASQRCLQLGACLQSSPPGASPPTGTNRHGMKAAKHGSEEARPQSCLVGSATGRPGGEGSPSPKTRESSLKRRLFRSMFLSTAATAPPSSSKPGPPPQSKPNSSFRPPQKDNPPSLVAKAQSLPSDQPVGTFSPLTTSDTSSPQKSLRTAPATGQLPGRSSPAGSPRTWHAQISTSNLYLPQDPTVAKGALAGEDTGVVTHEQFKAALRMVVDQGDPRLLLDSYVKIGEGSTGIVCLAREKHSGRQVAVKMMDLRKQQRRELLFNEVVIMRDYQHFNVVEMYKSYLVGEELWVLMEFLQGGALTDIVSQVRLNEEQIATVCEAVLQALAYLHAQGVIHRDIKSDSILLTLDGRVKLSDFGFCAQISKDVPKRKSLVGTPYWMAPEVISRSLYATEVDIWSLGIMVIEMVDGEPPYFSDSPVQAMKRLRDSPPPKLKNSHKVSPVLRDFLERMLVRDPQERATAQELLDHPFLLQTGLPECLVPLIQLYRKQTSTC

[4] = target: Tyrosine-protein kinase HCK (Homo sapiens) (UniProt P08631); assay: Selectivity interaction (Upstate Kinase Profiler service (Millipore)) EUB0000056c HCK; conditions: at 1 µM
Tyrosine-protein kinase HCK (Homo sapiens), sequence (P08631 2-526 limits assumed): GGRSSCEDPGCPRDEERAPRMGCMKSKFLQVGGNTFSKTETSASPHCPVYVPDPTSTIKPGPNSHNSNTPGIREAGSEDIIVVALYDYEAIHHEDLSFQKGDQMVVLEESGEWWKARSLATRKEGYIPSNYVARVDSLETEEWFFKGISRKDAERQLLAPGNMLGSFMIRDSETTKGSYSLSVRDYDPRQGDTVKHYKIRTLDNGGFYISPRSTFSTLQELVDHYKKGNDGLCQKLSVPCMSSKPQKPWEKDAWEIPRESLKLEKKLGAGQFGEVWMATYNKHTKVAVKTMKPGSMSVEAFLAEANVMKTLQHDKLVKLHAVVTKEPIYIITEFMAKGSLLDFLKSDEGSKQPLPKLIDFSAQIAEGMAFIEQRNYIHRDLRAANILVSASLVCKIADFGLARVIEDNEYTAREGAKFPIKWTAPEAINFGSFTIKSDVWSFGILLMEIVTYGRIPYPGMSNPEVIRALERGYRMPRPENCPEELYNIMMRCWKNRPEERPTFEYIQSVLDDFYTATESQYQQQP

[5] = target: Dual specificity testis-specific protein kinase 1 (Homo sapiens) (UniProt Q15569); assay: Selectivity interaction (KinomeScan (DiscoverX)) EUB0000045b TESK1
Dual specificity testis-specific protein kinase 1 (Homo sapiens), sequence (Q15569 whole entry, looked up): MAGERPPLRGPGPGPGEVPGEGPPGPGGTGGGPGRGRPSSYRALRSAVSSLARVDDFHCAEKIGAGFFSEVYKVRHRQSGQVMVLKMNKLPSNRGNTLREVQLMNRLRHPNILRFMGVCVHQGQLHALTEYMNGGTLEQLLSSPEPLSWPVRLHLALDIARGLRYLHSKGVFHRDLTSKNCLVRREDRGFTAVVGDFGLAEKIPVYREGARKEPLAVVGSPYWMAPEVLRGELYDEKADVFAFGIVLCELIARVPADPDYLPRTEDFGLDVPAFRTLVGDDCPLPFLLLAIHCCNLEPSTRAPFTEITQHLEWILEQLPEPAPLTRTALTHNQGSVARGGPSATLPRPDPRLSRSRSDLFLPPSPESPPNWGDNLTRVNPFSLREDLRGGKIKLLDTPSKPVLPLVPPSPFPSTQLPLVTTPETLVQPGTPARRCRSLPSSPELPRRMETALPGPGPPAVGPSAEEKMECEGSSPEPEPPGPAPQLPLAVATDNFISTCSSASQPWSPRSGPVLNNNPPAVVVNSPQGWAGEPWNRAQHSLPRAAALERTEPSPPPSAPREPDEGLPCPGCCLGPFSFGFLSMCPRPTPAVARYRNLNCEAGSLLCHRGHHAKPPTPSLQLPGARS

[6] = system: Tyrosine-protein kinase ABL1 (Homo sapiens), P00519 [Q252H]; assay: Selectivity interaction (KinomeScan (DiscoverX)) EUB0000655a ABL1; conditions: at 10 µM
[7] = target: T2, Dual specificity mitogen-activated protein kinase kinase 6 (Homo sapiens) (UniProt P52564); assay: Selectivity interaction (KinomeScan (DiscoverX)) EUB0000655a MAP2K6; conditions: at 10 µM
T2 sequence (whole entry): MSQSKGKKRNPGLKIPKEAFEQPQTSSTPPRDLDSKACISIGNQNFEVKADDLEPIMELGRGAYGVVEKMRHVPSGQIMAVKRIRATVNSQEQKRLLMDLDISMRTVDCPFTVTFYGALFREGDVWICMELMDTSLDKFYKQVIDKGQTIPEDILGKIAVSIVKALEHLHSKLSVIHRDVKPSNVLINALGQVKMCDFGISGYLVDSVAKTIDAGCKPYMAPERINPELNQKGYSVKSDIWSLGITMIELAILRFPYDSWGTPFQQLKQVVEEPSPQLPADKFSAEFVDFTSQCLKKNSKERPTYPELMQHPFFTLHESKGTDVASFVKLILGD

[8] = target: T3, Serine/threonine-protein kinase TAO3 (Homo sapiens) (UniProt Q9H2K8); assay: Selectivity interaction (KinomeScan (DiscoverX)) EUB0001619a TAOK3; conditions: at 1 µM
T3 sequence (whole entry): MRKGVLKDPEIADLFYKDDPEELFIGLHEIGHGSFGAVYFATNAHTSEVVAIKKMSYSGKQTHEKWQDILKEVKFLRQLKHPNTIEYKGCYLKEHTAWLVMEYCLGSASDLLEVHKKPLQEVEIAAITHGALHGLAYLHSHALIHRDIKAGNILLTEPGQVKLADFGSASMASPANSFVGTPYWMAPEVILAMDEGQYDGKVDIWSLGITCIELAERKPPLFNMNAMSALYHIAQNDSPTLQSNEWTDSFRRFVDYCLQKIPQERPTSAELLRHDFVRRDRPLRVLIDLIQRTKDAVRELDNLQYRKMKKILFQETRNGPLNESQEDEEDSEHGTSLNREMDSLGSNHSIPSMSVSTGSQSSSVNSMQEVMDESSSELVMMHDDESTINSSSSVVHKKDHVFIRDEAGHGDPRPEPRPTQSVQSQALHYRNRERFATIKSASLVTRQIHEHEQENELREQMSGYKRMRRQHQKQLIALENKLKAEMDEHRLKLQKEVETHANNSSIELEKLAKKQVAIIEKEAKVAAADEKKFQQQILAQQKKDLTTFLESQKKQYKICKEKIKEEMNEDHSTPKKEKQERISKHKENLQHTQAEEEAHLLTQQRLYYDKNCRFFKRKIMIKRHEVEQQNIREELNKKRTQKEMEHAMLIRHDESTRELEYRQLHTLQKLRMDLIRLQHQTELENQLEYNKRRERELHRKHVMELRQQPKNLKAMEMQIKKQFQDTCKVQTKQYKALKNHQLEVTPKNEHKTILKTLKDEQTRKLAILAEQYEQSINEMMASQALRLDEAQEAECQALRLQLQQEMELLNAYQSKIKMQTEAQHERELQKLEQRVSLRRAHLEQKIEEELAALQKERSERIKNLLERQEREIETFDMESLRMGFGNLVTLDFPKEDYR

[9] = target: Calcium/calmodulin-dependent protein kinase type II subunit alpha (Homo sapiens, UniProt Q9UQM7); assay: Selectivity interaction (KinomeScan (DiscoverX)) EUB0000607a CAMK2A; conditions: at 10 µM
Calcium/calmodulin-dependent protein kinase type II subunit alpha, sequence (Q9UQM7 whole entry): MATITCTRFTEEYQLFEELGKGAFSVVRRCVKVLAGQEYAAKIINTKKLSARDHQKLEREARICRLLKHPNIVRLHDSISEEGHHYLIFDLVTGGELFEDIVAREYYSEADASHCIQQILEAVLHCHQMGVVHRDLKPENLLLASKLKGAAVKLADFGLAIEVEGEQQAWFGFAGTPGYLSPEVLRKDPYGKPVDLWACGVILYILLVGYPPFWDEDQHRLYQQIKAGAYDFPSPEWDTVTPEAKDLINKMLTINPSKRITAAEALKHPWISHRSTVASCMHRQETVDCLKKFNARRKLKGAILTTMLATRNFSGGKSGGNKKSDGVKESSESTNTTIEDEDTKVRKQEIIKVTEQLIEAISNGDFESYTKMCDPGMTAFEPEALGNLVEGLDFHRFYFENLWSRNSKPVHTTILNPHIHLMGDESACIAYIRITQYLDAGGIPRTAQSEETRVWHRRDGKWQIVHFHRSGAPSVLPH

Structure (SMILES): COc1cc(Nc2nc(C)cc(-c3cnn4nc(OC)ccc34)n2)cc(C(F)(F)F)c1
% of control [1]: 86%

% of inhibition [2]: 3.66%
Structure (SMILES): CC[C@@H]1[C@H](F)C(=O)N[C@@H]1COc1nccc2cc(C(N)=O)c(OC)cc12 [ZIMLOVISERTIB]

Structure (SMILES): CCC(=O)N1CCN(c2ccc(-n3c(=O)ccc4cnc5ccc(-c6cnc7ccccc7c6)cc5c43)cc2C(F)(F)F)CC1
% of control [3]: 77%

% of inhibition [4]: 46%
Structure (SMILES): Cc1ccc(-c2ccc3c(ccc4sc5c(c43)NC[C@@H](C)NC5=O)n2)cn1

Structure (SMILES): C=CC(=O)Nc1cc(-n2c(=O)ccc3cnc4ccc(-c5ccc(NS(C)(=O)=O)cc5)cc4c32)ccc1C
% of control ([5]; at 1 µM): 94% | % of control ([5]; at 10 µM): 98%

Structure (SMILES): CN(C)CCOc1ccc(-c2nc(-c3ccncc3)c(-c3ccc4c(c3)CC/C4=N\O)[nH]2)cc1
% of control [6]: 3.8% | % of control [7]: 100%

Structure (SMILES): N#Cc1cccc(-c2c[nH]c3ncnc(N4CCOCC4)c23)c1
% of control [8]: 36%

Structure (SMILES): CNC(=O)Nc1ccc(-c2nc(N3CC4CCC(C3)O4)c3cnn(C4CCC5(CC4)OCCO5)c3n2)cc1
% of control [9]: 100%
